Test results taken from PMC7010297, “How the initiating ribosome copes with ppGpp to translate mRNAs” (PLoS Biology, 2020).
Several values for one entry are separate records, joined by “and”; a condition that tells them apart may be missing. Equal entries are not always repeated. Where two headings read alike, the source gives them in different places.

Target: T1, 30S-bound IF2 (30S IC) (Escherichia coli, UniProt P0A705)
T1 construct: 6xHis (N); made in house
Assay: ppGpp (or GDP) to GTP competitive assay for 30S IC formation by MST
Assay type: binding
Method: MST was calculated from the respective fluorescence time dependencies (S3 Fig). […] Symbols as in (B). […] Continuous lines indicate nonlinear regression fittings with quadratic (B and E) or same-site competition (G) functions. Three measurements were performed; mean and standard deviations are plotted (S1 Data).
[…] Symbols are as indicated, 3 measurements were performed, and mean and standard deviation are plotted (S1 Data). Continuous lines show nonlinear regression fittings with a same-site inhibition model. […] (PDF) Click here for additional data file.

T1 sequence (P0A705 whole entry, looked up): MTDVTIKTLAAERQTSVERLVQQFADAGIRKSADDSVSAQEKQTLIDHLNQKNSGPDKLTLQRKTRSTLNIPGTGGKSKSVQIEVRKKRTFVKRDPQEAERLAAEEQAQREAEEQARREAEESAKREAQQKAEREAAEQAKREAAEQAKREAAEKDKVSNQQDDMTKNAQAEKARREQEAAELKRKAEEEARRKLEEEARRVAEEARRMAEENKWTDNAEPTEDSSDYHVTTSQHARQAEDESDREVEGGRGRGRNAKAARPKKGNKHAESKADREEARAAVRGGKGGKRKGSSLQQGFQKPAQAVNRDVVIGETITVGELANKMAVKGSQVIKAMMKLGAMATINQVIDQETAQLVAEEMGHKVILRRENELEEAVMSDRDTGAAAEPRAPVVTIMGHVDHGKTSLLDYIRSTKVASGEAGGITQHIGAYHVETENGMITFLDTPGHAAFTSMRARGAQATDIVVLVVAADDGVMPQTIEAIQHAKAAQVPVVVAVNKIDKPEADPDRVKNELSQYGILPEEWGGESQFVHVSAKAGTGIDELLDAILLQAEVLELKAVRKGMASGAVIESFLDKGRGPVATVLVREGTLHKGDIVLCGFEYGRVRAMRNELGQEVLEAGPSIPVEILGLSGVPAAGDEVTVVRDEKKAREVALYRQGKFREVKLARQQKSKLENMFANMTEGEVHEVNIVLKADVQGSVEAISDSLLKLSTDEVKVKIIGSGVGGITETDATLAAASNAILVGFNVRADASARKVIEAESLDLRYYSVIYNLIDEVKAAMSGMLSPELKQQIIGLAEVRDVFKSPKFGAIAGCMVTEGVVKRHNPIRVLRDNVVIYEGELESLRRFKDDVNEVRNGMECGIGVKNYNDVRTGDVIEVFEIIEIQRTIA

Nc1nc2c(ncn2[C@@H]2O[C@H](COP(=O)(O)OP(=O)(O)O)[C@@H](OP(=O)(O)OP(=O)(O)O)[C@H]2O)c(=O)[nH]1 [ppGpp]
MST Average (mInfA, Log [ppGpp] 0.29): 1046.47 a.u. | MST Average (mInfA, Log [ppGpp] 0.59): 1038.08 a.u. | MST Average (mInfA, Log [ppGpp] 0.89): 1028.93 a.u. | MST Average (mInfA, Log [ppGpp] 1.19): 1018.24 a.u. | MST Replicates (a.u.) (mInfA, Log [ppGpp] 1.19): 1017.94 a.u. and 1018.60 a.u. and 1018.17 a.u. | MST Average (mInfA, Log [ppGpp] 1.49): 1003.04 a.u. | MST Replicates (a.u.) (mInfA, Log [ppGpp] 1.49): 1002.79 a.u. and 1003.03 a.u. and 1003.30 a.u. | MST Average (mInfA, Log [ppGpp] 1.80): 986.30 a.u. | MST Replicates (a.u.) (mInfA, Log [ppGpp] 1.80): 985.49 a.u. and 986.54 a.u. and 986.87 a.u. | MST Average (mInfA, Log [ppGpp] 2.10): 973.31 a.u. | MST Replicates (a.u.) (mInfA, Log [ppGpp] 2.10): 972.70 a.u. and 973.61 a.u. and 973.64 a.u. | MST Average (mInfA, Log [ppGpp] 2.40): 964.30 a.u. | MST Replicates (a.u.) (mInfA, Log [ppGpp] 2.40): 963.79 a.u. | MST Average (mInfA, Log [ppGpp] 2.70): 958.86 a.u. | MST Average (mInfA, Log [ppGpp] -0.01): 1048.67 a.u. | MST Average (mInfA, Log [ppGpp] -0.31): 1053.58 a.u. | MST Average (mInfA, Log [ppGpp] -0.61): 1049.04 a.u. | MST Average (mMF1, Log [ppGpp] 0.29): 1016.08 a.u. | MST Average (mMF1, Log [ppGpp] 0.59): 1007.03 a.u. | MST Average (mMF1, Log [ppGpp] 0.89): 999.03 a.u. | MST Average (mMF1, Log [ppGpp] 1.19): 986.05 a.u. | MST Replicates (a.u.) (mMF1, Log [ppGpp] 1.19): 985.88 a.u. and 986.00 a.u. and 986.26 a.u. | MST Average (mMF1, Log [ppGpp] 1.49): 972.28 a.u. | MST Replicates (a.u.) (mMF1, Log [ppGpp] 1.49): 971.54 a.u. and 972.59 a.u. and 972.70 a.u. | MST Average (mMF1, Log [ppGpp] 1.80): 959.11 a.u. | MST Replicates (a.u.) (mMF1, Log [ppGpp] 1.80): 958.37 a.u. and 959.24 a.u. and 959.71 a.u. | MST Average (mMF1, Log [ppGpp] 2.10): 947.40 a.u. | MST Replicates (a.u.) (mMF1, Log [ppGpp] 2.10): 946.23 a.u. and 947.67 a.u. and 948.30 a.u. | MST Average (mMF1, Log [ppGpp] 2.40): 939.79 a.u. | MST Replicates (a.u.) (mMF1, Log [ppGpp] 2.40): 938.92 a.u. | MST Average (mMF1, Log [ppGpp] 2.70): 942.02 a.u. | MST Average (mMF1, Log [ppGpp] -0.01): 1022.73 a.u. | MST Average (mMF1, Log [ppGpp] -0.31): 1023.54 a.u. | MST Average (mMF1, Log [ppGpp] -0.61): 1029.40 a.u. | IC50 (mRNA mInfA, read-out: IC50 Average): 29 µM | IC50 (mRNA mInfA, read-out: IC50 Replicates): 28.5 µM and 29 µM and 29.5 µM | IC50 (mRNA mMF1, read-out: IC50 Average): 8.64 µM | IC50 (mRNA mMF1, read-out: IC50 Replicates): 8.44 µM and 8.71 µM and 8.75 µM | IC50 (mRNA mTufA, read-out: IC50 Average): 131 µM | IC50 (mRNA mTufA, read-out: IC50 Replicates): 130 µM and 131 µM and 132 µM | MST Average (mTufA, Log [ppGpp] 0.29): 1135.97 a.u. | MST Average (mTufA, Log [ppGpp] 0.59): 1126.95 a.u. | MST Average (mTufA, Log [ppGpp] 0.89): 1118.40 a.u. | MST Average (mTufA, Log [ppGpp] 1.19): 1113.08 a.u. | MST Replicates (a.u.) (mTufA, Log [ppGpp] 1.19): 1112.21 a.u. and 1113.44 a.u. and 1113.60 a.u. | MST Average (mTufA, Log [ppGpp] 1.49): 1095.20 a.u. | MST Replicates (a.u.) (mTufA, Log [ppGpp] 1.49): 1094.85 a.u. and 1094.92 a.u. and 1095.85 a.u. | MST Average (mTufA, Log [ppGpp] 1.80): 1070.12 a.u. | MST Replicates (a.u.) (mTufA, Log [ppGpp] 1.80): 1069.34 a.u. and 1070.42 a.u. and 1070.61 a.u. | MST Average (mTufA, Log [ppGpp] 2.10): 1051.04 a.u. | MST Replicates (a.u.) (mTufA, Log [ppGpp] 2.10): 1050.31 a.u. and 1051.38 a.u. and 1051.44 a.u.
